# Assay results as given in patent publication US20080145313A1, “Compositions and Methods for the Treatment and Prevention of Neoplastic Disorders” (Genesis Research & Development Corporation Limited, priority 2006, published 2008).
# Test system: A549 cells
# Assay: Growth inhibition of siRNA-transfected A549 cells, SYBR Green I DNA content
# Format: cell-based, human
# Conditions: 10 nM siRNA; DNA content 96 hours after transfection
# Experimental: A549 cells (human lung cancer cell line; ATCC No. CCL-185), SK-MeI-5 cells (human melanoma cell line; ATCC No. HTB-70), MCF-7 cells (human adenocarcinoma cell line; ATCC No. HTB-22), HCT-116 cells (colorectal carcinoma; ATCC CCL-247) and HCT-116 p53 null cells (derived from ATCC No. CCL-247; Bunz et al., Science 282:1497-1501, 1998) were cultured in RPMI 1640 medium with 10% v/v heat-inactivated fetal calf serum (FCS). Cells were seeded at a density of 5×10^4 cells/cm^2 in multi-well tissue culture plates. Sequences of Stealth™ siRNA duplexes (Invitrogen) targeting human ribonucleotide reductase subunit 1 (SEQ ID NO: 22) and subunit 2 (SEQ ID NO; 38) are given in SEQ ID NO: 4830-4832 (DNA), and SEQ ID NO: 5136-5138 (RNA) for RRM1, and SEQ ID NO: 5306-5308 (DNA), and SEQ ID NO: 5303-5305 (RNA) for RRM2. siRNAs were transfected at different concentrations into cells using Lipofectamine™ RNAiMAX transfection reagent (Invitrogen). Non-specific siRNA (SEQ ID NO: 4804 and 4805 (DNA), and SEQ ID NO: 5301 and 5302 (RNA)) were used as controls. The cellular DNA content was measured using a SYBR Green I-based fluorometric assay at 24, 48, 72 and 96 hours after transfection (120 hours for the MCF-7 cells), as follows. At the indicated time points following reverse transfection, cells were harvested and frozen at −80° C. overnight. Cells were thawed and cell lysis buffer (phosphate-buffered saline (PBS) containing 1% Triton X-100, pH 7) and SYBR Green I (1:10^5 V/V; Invitrogen) was added to the wells and incubated overnight in the dark at 4° C.
# The following day, cell lysates were mixed thoroughly, and DNA fluorescence was measured with a Wallac Victor^2 plate reader (Turku, Finland) set at an excitation frequency of 485 nm and measuring emission at 535 nm.
# To determine the duration of the knock-down effect of RRM1-targeting siRNA, A549 cells were reverse transfected with 1 or 10 nM RRM1-3 (SEQ ID NO: 4832 (DNA, and SEQ ID NO: 5138 (RNA)) or control siRNA (SEQ ID NO: 4804 (DNA), and SEQ ID NO: 5301 (RNA)), and growth followed over time. Growth inhibition was measured daily as described above for up to ten days. RRM1-3-mediated RRM1 silencing inhibited growth for at least 10 days post-transfection at both 1 and 10 nM (FIG. 11).
# siRNA-mediated inhibition of cancer cell growth was determined in A549 cells as follows. A549 cells (human lung cancer cell line; ATCC No. CCL-185) were cultured in RPMI 1640 medium with 10% v/v heat-inactivated fetal calf serum. Cells were seeded at a density of 5×10^3 cells/cm^2 in multi-well tissue culture plates. Stealth™ siRNA duplexes (Invitrogen) targeting genes involved in cancer energy and metabolism pathways and listed in Table 9, were transfected at 10 nM into cells using Lipofectamine™ RNAiMAX transfection reagent (Invitrogen). Non-specific siRNA (SEQ ID NO: 4804 and 4805 (DNA), and SEQ ID NO: 5301 and 5302 (RNA)) were used as controls. The cellular DNA content was measured using a SYBR Green I-based fluorometric assay at 96 hours after transfection. The cells were harvested and frozen at −80° C. overnight. Cells were thawed and cell lysis buffer (phosphate-buffered saline (PBS) containing 1% Triton X-100, pH 7) and SYBR Green I (1:10^5 v/v; Invitrogen) was added to the wells and incubated overnight in the dark at 4° C. The following day, cell lysates were mixed thoroughly, and DNA fluorescence was measured with a Wallac Victor^2 plate reader (Turku, Finland) set at an excitation frequency of 485 nm and measuring emission at 535 nm.
# Three different siRNAs were tested for each target gene. The average fluorescence units from three replicate wells, representing the amount of DNA per well, were used to determine the effect on growth inhibition. The results are given in Table 10 (energy and metabolism gene targets) and Table 11 (transporter gene targets).
# siRNA-mediated RNAi was also determined on a panel of different cell lines. […]
row,Substance,Growth Inhibition in A549 cells
1,SEQ ID NO: 4811: siRNA targeting H6PD (G6PDH) (chain 1 TTATGGAGACATGTCCCTGGAGCTC; chain 2 UUAUGGAGACAUGUCCCUGGAGCUC; chemistry not given here; one strand in two spellings),− (no growth inhibition with any siRNA)
2,SEQ ID NO: 4822: siRNA targeting PRPS1 (chain 1 TCCACATTCAGCCTGTCTGCAATGG; chain 2 UCCACAUUCAGCCUGUCUGCAAUGG; chemistry not given here; one strand in two spellings),− (no growth inhibition with any siRNA)
3,"SEQ ID NO: 4865: siRNA targeting SLC25A6 (ANT3) (chain 1 TTTGCGCCCGAACTGCATCATCATG; chain 2 UUUGCGCCCGAACUGCAUCAUCAUG; Both strands are one antisense strand in DNA/RNA notation, chemistry not given here, further chemistry not given here; one strand in two spellings)",− (no growth inhibition with any siRNA)
4,"SEQ ID NO: 4988: siRNA targeting DCK (chain 1 GCAAGGCATTCCTCTTGAATATTTA; chain 2 GCAAGGCAUUCCUCUUGAAUAUUUA; Both strands are one antisense strand in DNA/RNA notation, chemistry not given here, further chemistry not given here; one strand in two spellings)",− (no growth inhibition with any siRNA)
5,"SEQ ID NO: 4874: siRNA targeting RRM2B (chain 1 TATCTGTGGTTTCTGCCATAACTGC; chain 2 UAUCUGUGGUUUCUGCCAUAACUGC; Both strands are one antisense strand in DNA/RNA notation, chemistry not given here, further chemistry not given here; one strand in two spellings)",− (no growth inhibition with any siRNA)
6,SEQ ID NO: 4807: siRNA targeting ARNT (HIF-1β) (chain 1 TGCACCTGATCATAGAGTGTGCTGC; chain 2 UGCACCUGAUCAUAGAGUGUGCUGC; chemistry not given here; one strand in two spellings),+ (inhibits by at least 50%)
7,SEQ ID NO: 4829: siRNA targeting CAD (chain 1 AACTGTGTCAATCTGTTTCACTGCT; chain 2 AACUGUGUCAAUCUGUUUCACUGCU; chemistry not given here; one strand in two spellings),+ (inhibits by at least 50%)
8,"SEQ ID NO: 4855: siRNA targeting FASN (chain 1 TTGGAAGGCACATCCCAGAGGAAGT; chain 2 UUGGAAGGCACAUCCCAGAGGAAGU; Both strands are one antisense strand in DNA/RNA notation, chemistry not given here, further chemistry not given here; one strand in two spellings)",+ (inhibits by at least 50%)
9,SEQ ID NO: 4993: siRNA targeting TK2 (chain 1 GGAAGACGACATGCCTGGAATTCTT; chain 2 GGAAGACGACAUGCCUGGAAUUCUU; chemistry not given here; one strand in two spellings),− (no growth inhibition with any siRNA)
10,SEQ ID NO: 4995: siRNA targeting DGUOK (chain 1 CCTCATGAGAGAGGTAAACACCTTT; chain 2 CCUCAUGAGAGAGGUAAACACCUUU; chemistry not given here; one strand in two spellings),− (no growth inhibition with any siRNA)
11,SEQ ID NO: 4810: siRNA targeting H6PD (G6PDH) (chain 1 TCTTGAACAAGATCCGAGCGTAGCC; chain 2 UCUUGAACAAGAUCCGAGCGUAGCC; chemistry not given here; one strand in two spellings),− (no growth inhibition with any siRNA)
12,"SEQ ID NO: 4872: siRNA targeting RRM2B (chain 1 TTTGACAGCATCAACAATGATCTCC; chain 2 UUUGACAGCAUCAACAAUGAUCUCC; Both strands are one antisense strand in DNA/RNA notation, chemistry not given here, further chemistry not given here; one strand in two spellings)",− (no growth inhibition with any siRNA)
13,"SEQ ID NO: 4859: siRNA targeting ACLY (chain 1 TACAGATGAACTTGTAAAGGAGTTC; chain 2 UACAGAUGAACUUGUAAAGGAGUUC; Both strands are one antisense strand in DNA/RNA notation, chemistry not given here, further chemistry not given here; one strand in two spellings)",− (no growth inhibition with any siRNA)
14,"SEQ ID NO: 4863: siRNA targeting SLC25A6 (ANT3) (chain 1 AAAGTACCTCCAGAACTGCGTGTGC; chain 2 AAAGUACCUCCAGAACUGCGUGUGC; Both strands are one antisense strand in DNA/RNA notation, chemistry not given here, further chemistry not given here; one strand in two spellings)",++ (inhibits by at least 75%)
15,SEQ ID NO: 4850: siRNA targeting COX5A (chain 1 ATTTAAAGTTGGTCTAAGTTCCTGG; chain 2 AUUUAAAGUUGGUCUAAGUUCCUGG; chemistry not given here; one strand in two spellings),− (no growth inhibition with any siRNA)
16,SEQ ID NO: 4996: siRNA targeting DGUOK (chain 1 CCTGCACTGCCCAAAGTCTTGGAAA; chain 2 CCUGCACUGCCCAAAGUCUUGGAAA; chemistry not given here; one strand in two spellings),− (no growth inhibition with any siRNA)

# Same assay, conditions: 10 nM siRNA; up to 120 hours post-transfection (FIG. 8)
row,Substance,"growth inhibition, A549"
1,"SEQ ID NO: 4872: siRNA targeting RRM2B (chain 1 TTTGACAGCATCAACAATGATCTCC; chain 2 UUUGACAGCAUCAACAAUGAUCUCC; Both strands are one antisense strand in DNA/RNA notation, chemistry not given here, further chemistry not given here; one strand in two spellings)",No inhibition of growth

# Same assay, conditions: A549 cells, 10 nM siRNA, DNA content 96 hours after transfection, transporter gene targets
row,Substance,Growth Inhibition in A549 cells by 10 nM siRNA
1,SEQ ID NO: 4950: siRNA targeting ATP6V1A (chain 1 TTTCATGGAGGAAAGTTTATAGAGG; chain 2 UUUCAUGGAGGAAAGUUUAUAGAGG; chemistry not given here; one strand in two spellings),− (no growth inhibition)
2,SEQ ID NO: 4941: siRNA targeting ATP2B2 (PMCA2) (chain 1 ATCTGTGTCTGGATCCGATTCAGGC; chain 2 AUCUGUGUCUGGAUCCGAUUCAGGC; chemistry not given here; one strand in two spellings),+ (inhibits by at least 50%)
3,SEQ ID NO: 4980: siRNA targeting ABCB1 (MDR1) (chain 1 TTCACCAAATGTGACATTTCCTTCC; chain 2 UUCACCAAAUGUGACAUUUCCUUCC; chemistry not given here; one strand in two spellings),− (no growth inhibition)
